Assay results from patent publication US20120035265A1, “COMPOSITIONS, METHODS, AND DEVICES FOR THE TREATMENT OF DYSMENORRHEA” (MediciNova, Inc., priority 2010, published 2012).
Where two headings read alike, the source gives them in different places.

Legend:
[1] = test system: uterine muscles isolated from pregnant rabbits; assay: Spontaneous contractions of isolated uterine muscles of pregnant rabbits (organ bath); type: cell-based, rabbit
Experimental: (§1) Uterine muscles of pregnant rabbits were isolated, and experiments were conducted based on organ-bath method. After specimens of uterine muscles were suspended and spontaneous contractions was stabilized, the test substance, control substance or positive control substance was administered every 10 min, while doses were increased gradually. Efficacy of drugs was evaluated by comparing the sum of uterine contraction for 10 min before and after administration of drugs, defining the former as 100%.

[2] = test system: women with severe primary dysmenorrhea; assay: Transdermal administration of MN-221 in women with severe primary dysmenorrhea (double-blind cross-over trial); type: in vivo, human
Experimental: The study is conducted in women, aged 15-39 years. Some of them are nulliparous and some are parous. All have regular 25-32 day cycles. They have all suffered from severe dysmenorrhea for more than one year. All the women are incapacitated for 1-2 days every month. During the first menstrual day they have continuous low abdominal pain of varying severity and in some women it is accompanied by nausea and vomiting.
All the women are informed and give their consent before the trial is started. The study is performed as a double-blind cross-over trial in which the patients are given, in random order, MN-221 transdermal patches during one menstrual period and placebo patches of identical appearance during the next period. The patients return to the hospital after the end of each menstrual flow and their dysmenorrheic symptoms are assessed. The therapeutic effect is also assessed and graded as none, weak, and moderate, over to good and very good. All women in the study have signs of ovulation—mid-cycle temperature rise—in the menstrual cycle preceding the trial. The MN-221 or the placebo is given as a five day transdermal patch during menstrual pains. MN-221 is administered as a dose in a range of about 0.02 mg/kg to 1.5 mg/Kg. The volume of the menstrual blood loss is calculated from the hemoglobin content of all the sanitary towels used by the patient and delivered to the department.

[3] = test system: uterine muscles isolated from pregnant rabbits; assay: Oxytocin-induced contractions of isolated uterine muscles of pregnant rabbits (organ bath); type: cell-based, rabbit
Experimental: as §1, with “oxytocin (1 mU/mL)-induced” for “spontaneous”

pregnant sheep = assay: Oxytocin-induced uterine contractions, cardiovascular system and general metabolism of pregnant sheep and their fetuses; type: in vivo
Experimental: MN-221 (0.001, 0.003, 0.01, 0.03, 0.1 and 0.3 μg/kg/min) was weighed and dissolved in physiological saline. At 123-125 days of pregnancy, sheep were infused with oxytocin (1.0 mU/kg/min) to induce uterine contractions. One hour later, MN-221 was infused for 3 consecutive hours beginning at a dose of 0.001 μg/kg/min for 30 min and increasing stepwise every 30 min to 0.3 μg/kg/min in the MN-221 group (N=4). The control received saline instead (N=4).

[4] = test system: uterine muscle isolated from pregnant rats; assay: Interaction of MN-221 and β-adrenoceptor antagonists on spontaneous contraction of uterine muscle isolated from pregnant rats (Schild regression); type: cell-based, rat; conditions: Rattus norvegicus
Experimental: The experimental operation of this study was as reported by T. Kawarabayashi et al.^4. After each SD-strain rat on Day 21 of pregnancy was exsanguinated to death, the uterus was isolated to prepare 8 myometrial samples (about 4 mm×10 mm) in the direction of the longitudinal muscle, with the adhesion to the placenta being avoided. Each myometrial sample was suspended with a load of about 1.0 g in an organ bath containing 10 mL of the Locke-Ringer solution at 37° C. […] After the suspended samples became stable for the amplitude and frequency of spontaneous contraction, each antagonist or distilled water was added to the bath to pretreat them for about 15 minutes. […] The contractile force of each sample was outputted through a force displacement transducer to a strain pressure amplifier and recorded with a rectigraph.
Any variable point (peak) with amplitude (tension) of 0.2 g or lower was excluded from analysis. Samples meeting any of the following criteria were rejected or removed from analysis.
Microsoft® Excel 2000 (Microsoft Corp.) was used for summing up or calculating data and preparing figures and tables. […] This EC50 value was used to calculate the concentration ratio (CR) of EC50 when an antagonist was added (for each sample) to that when no antagonist was added (mean value of the whole control group) and the logarithmic value of CR-1 (log [CR-1]).
Then, the added concentration of the antagonist was plotted on the X axis (logarithmic value) and log(CR-1) on the Y axis (Schild plot) to calculate the value of the X-axis intercept (pA2) and slope of the line using linear approximation (Schild regression^5). The slope was statistically compared with a slope of 1 (paired t-test; a probability level of less than 5% was considered significant). […] The mean and standard error were calculated for each data point obtained and indicated to two decimal places (or in 3 significant digit).

[5] = pregnant rabbit uterine muscles

EC50 ([1]; Oryctolagus cuniculus, spontaneous contractions, pregnant rabbit uterine muscles, read-out: pD2 values (converted)): 1.91 nM | EC50 ([3]; Oryctolagus cuniculus, oxytocin (1 mU/mL)-induced contractions, pregnant rabbit uterine muscles, read-out: pD2 values (converted)): 2.51 nM | EC50 ([4]; MN-221, control group (treated with distilled water), read-out: EC50): 0.843 ± 0.221 nM | EC50 ([4]; MN-221, control group (treated with distilled water), read-out: pD2 (converted)): 0.676 nM | EC50 ([4]; MN-221 after pretreatment with CGP 20712A 1 × 10^−8 mol/L, read-out: EC50): 0.868 ± 0.15 nM | EC50 ([4]; MN-221 after pretreatment with CGP 20712A 1 × 10^−8 mol/L, read-out: pD2 (converted)): 0.692 nM | EC50 ([4]; MN-221 after pretreatment with CGP 20712A 1 × 10^−9 mol/L, read-out: EC50): 1.25 ± 0.148 nM | EC50 ([4]; MN-221 after pretreatment with CGP 20712A 1 × 10^−9 mol/L, read-out: pD2 (converted)): 1.15 nM | EC50 ([4]; MN-221 after pretreatment with CGP 20712A 3 × 10^−9 mol/L, read-out: EC50): 1.05 ± 0.278 nM | EC50 ([4]; MN-221 after pretreatment with CGP 20712A 3 × 10^−9 mol/L, read-out: pD2 (converted)): 0.692 nM | EC50 ([4]; MN-221 after pretreatment with ICI 118,551 1 × 10^−8 mol/L, read-out: EC50): 23.1 ± 6.39 nM | EC50 ([4]; MN-221 after pretreatment with ICI 118,551 1 × 10^−8 mol/L, read-out: pD2 (converted)): 16.6 nM | EC50 ([4]; MN-221 after pretreatment with ICI 118,551 3 × 10^−8 mol/L, read-out: EC50): 50.9 ± 12.7 nM | EC50 ([4]; MN-221 after pretreatment with ICI 118,551 3 × 10^−8 mol/L, read-out: pD2 (converted)): 28.8 nM | EC50 ([4]; MN-221 after pretreatment with ICI 118,551 3 × 10^−9 mol/L, read-out: EC50): 4.6 ± 1.26 nM | EC50 ([4]; MN-221 after pretreatment with ICI 118,551 3 × 10^−9 mol/L, read-out: pD2 (converted)): 2.95 nM | EC50 ([4]; MN-221 after pretreatment with SR 59230A 1 × 10^−8 mol/L, read-out: EC50): 1.54 ± 1.08 nM | EC50 ([4]; MN-221 after pretreatment with SR 59230A 1 × 10^−8 mol/L, read-out: pD2 (converted)): 0.447 nM | EC50 ([4]; MN-221 after pretreatment with SR 59230A 3 × 10^−8 mol/L, read-out: EC50): 1.79 ± 0.499 nM | EC50 ([4]; MN-221 after pretreatment with SR 59230A 3 × 10^−8 mol/L, read-out: pD2 (converted)): 1.07 nM | EC50 ([4]; MN-221 after pretreatment with SR 59230A 3 × 10^−9 mol/L, read-out: EC50): 1.24 ± 0.338 nM | EC50 ([4]; MN-221 after pretreatment with SR 59230A 3 × 10^−9 mol/L, read-out: pD2 (converted)): 0.955 nM
SMILES: CN(C)C(=O)COc1ccc2c(c1)C[C@@H](NC[C@H](O)c1ccc(O)c(CCO)c1)CC2 [MN-221, (−)-bis(2-{[(2S)-2-({(2R)-2-hydroxy-2-[4-hydroxy-3-(2-hydroxyethyl)phenyl]ethyl}amino)-1,2,3,4-tetrahydronaphthalen-7-yl]oxy}-N,N-dimethyl-acetamide) monosulfate]
inhibitory effect against oxytocin-induced contractions of isolated uterine muscles ([1]; as worded in Example 6 (spontaneous contraction study)): demonstrated inhibitory effect | inhibitory effect against spontaneous contractions of uterine muscles, comparison [1, 5]: clearly stronger than that of HSR-81, ritodrine and terbutaline | therapeutic response (relief) compared to placebo ([2]; five day transdermal patch, about 0.02 mg/kg to 1.5 mg/Kg): positive response with relief in women as compared to placebo | increase in heart rate, blood pressure, palpitations, tremors, and/or flushes ([2]; transdermal patch, all subjects): substantially no increase in heart rate, blood pressure, palpitations, tremors, and/or flushes | inhibitory effect against oxytocin-induced contractions of isolated uterine muscles ([3]; oxytocin (1 mU/mL)): demonstrated inhibitory effect | inhibitory effect against oxytocin-induced contractions of uterine muscles, comparison [3, 5]: clearly stronger than that of HSR-81, ritodrine and terbutaline | maternal heart rate, diastolic and mean blood pressure, base excess, blood K+, blood lactate, plasma glucose, insulin, non-esterified fatty acid levels, fetal plasma glucose and insulin levels (pregnant sheep; MN-221 group versus control (saline) group): Significant differences between the two groups | suppression of oxytocin-induced uterine contractions (pregnant sheep; at doses over 0.03 μg/kg/min, infusion, oxytocin 1.0 mU/kg/min, pregnant sheep): more than 90% | cardiovascular and metabolic side effects (pregnant sheep; pregnant sheep and fetuses, stepwise infusion 0.001 to 0.3 μg/kg/min): reduced cardiovascular and metabolic side effects
